In patent publication US20070208087A1, “Compounds, compositions and methods for the treatment of inflammatory diseases” (priority 2001, published 2007):
“And” between values parts separate entries of the source, which are not always exact repeats. Equal values may be shown once. Read-outs that look alike come from different tables or passages of the source.

Key:
[1] = test system: microglia; experiment: Ranking of NO release inhibition (Example 12); format: cell-based; conditions: Microglia, ranking table
From the text: The bis- and tris-dihydroxyaryl compounds were ranked in order of effectiveness for the inhibition of NO release as set out in Table 8.

[2] = test system: Microglial cells; experiment: Dose response inhibition of NO release from microglia, 0.75-200 μM (Example 8); format: cell-based
Procedure: This experiment was designed to determine dose response inhibition of NO release from microglia by bis- and tris-dihydroxyaryl compounds when stimulated with LPS/IFNγ. […] This experiment is designed to determine a dose response for various bis- and tris-dihydroxyaryl compounds. Microglial cells were plated into 96 well plates at 1×10^5 cells/ml. […] The doses tested were: 0.75 μM, 1.56 μM, 3.125 μM, 6.25 μM, 12.5 μM, 25 μM, 50 μM, 100 μM and 200 μM. Nitric oxide release was measured after 48 hours using the Griess reaction.

[3] = dose 0.75 μM, 48 hours, single replicates
[4] = dose 1.56 μM, 48 hours, single replicates
[5] = dose 3.125 μM, 48 hours, single replicates
[6] = dose 6.25 μM, 48 hours, single replicates
[7] = dose 12.5 μM, 48 hours, single replicates
[8] = dose 25 μM, 48 hours, single replicates
[9] = dose 50 μM, 48 hours, single replicates
[10] = dose 100 μM, 48 hours, single replicates

O=C(NCc1ccc(O)c(O)c1)C(=Cc1ccc(O)c(O)c1)NC(=O)c1ccc(O)c(O)c1 [Compound 21, α-(3,4-dihydroxybenzamido)-3,4-dihydroxycinnamic acid 3,4-dihydroxybenzyl amide]
inhibition at 50 µM [1]: 18%
inhibition at 0.75 µM ([2]; Microglia, 48 h, dose 0.75 μM): -15.5%
inhibition at 1.56 µM ([2]; Microglia, 48 h, dose 1.56 μM): -6.58%
inhibition at 3.125 µM ([2]; Microglia, 48 h, dose 3.125 μM): -6.05%
inhibition at 6.25 µM ([2]; Microglia, 48 h, dose 6.25 μM, 48 hours, read-out: Avg % Inhibition): -1.84%
inhibition at 12.5 µM ([2]; Microglia, 48 h, dose 12.5 μM, 48 hours, read-out: Avg % Inhibition): 5%
inhibition at 25 µM ([2]; Microglia, 48 h, dose 25 μM, 48 hours, read-out: Avg % Inhibition): 2.9%
inhibition at 50 µM ([2]; Microglia, 48 h, dose 50 μM, 48 hours, read-out: Avg % Inhibition): 13.7%
inhibition at 50 µM ([2]; Microglia, 48 h, dose 50 μM, 48 hours, single replicates, read-out: % inhibition): 16.3%
inhibition at 100 µM ([2]; Microglia, 48 h, dose 100 μM, 48 hours, read-out: Avg % Inhibition): 33.7%
inhibition at 100 µM ([2]; Microglia, 48 h, dose 100 μM, 48 hours, single replicates, read-out: % inhibition): 33.7%
inhibition at 200 µM ([2]; Microglia, 48 h, dose 200 μM, 48 hours, read-out: Avg % Inhibition): 69%
inhibition at 200 µM ([2]; Microglia, 48 h, dose 200 μM, 48 hours, single replicates, read-out: % inhibition): 67.6%
μM NO release Avg ([2]; dose 0.75 μM, 48 hours): 22.865 µM
% inhibition [2, 3]: −16.05% and −17.63% and −12.89%
OD values (printed under head μM NO release) [2, 3]: 0.195 and 0.199 and 0.201
μM NO release [2, 3]: 22.344 µM and 22.969 µM and 23.281 µM
μM NO release Avg ([2]; dose 1.56 μM, 48 hours): 21.094 µM
% inhibition [2, 4]: −8.16% and −9.74% and −1.84%
OD values (printed under head μM NO release) [2, 4]: 0.181 and 0.189 and 0.191
μM NO release [2, 4]: 20.156 µM and 21.406 µM and 21.719 µM
μM NO release Avg ([2]; dose 3.125 μM, 48 hours): 20.990 µM
% inhibition [2, 5]: −4.21% and −8.16% and −5.79%
OD values (printed under head μM NO release) [2, 5]: 0.186 and 0.184 and 0.189
μM NO release [2, 5]: 20.938 µM and 20.625 µM and 21.406 µM
μM NO release Avg ([2]; dose 6.25 μM, 48 hours): 20.156 µM
% inhibition [2, 6]: 2.89% and −3.42%
OD values (printed under head μM NO release) [2, 6]: 0.183 and 0.175 and 0.185
μM NO release [2, 6]: 20.469 µM and 19.219 µM and 20.781 µM
μM NO release Avg ([2]; dose 12.5 μM, 48 hours): 18.802 µM
% inhibition [2, 7]: 5.26% and −4.21% and 13.95%
OD values (printed under head μM NO release) [2, 7]: 0.161 and 0.172 and 0.184
μM NO release [2, 7]: 17.031 µM and 18.750 µM and 20.625 µM
μM NO release Avg ([2]; dose 25 μM, 48 hours): 19.219 µM
% inhibition [2, 8]: 7.63% and 1.32% and −0.26%
OD values (printed under head μM NO release) [2, 8]: 0.179 and 0.169 and 0.177
μM NO release [2, 8]: 19.844 µM and 18.281 µM and 19.531 µM
μM NO release Avg ([2]; dose 50 μM, 48 hours): 17.083 µM
% inhibition [2, 9]: 10.79% and 13.95%
OD values (printed under head μM NO release) [2, 9]: 0.161 and 0.158 and 0.165
μM NO release [2, 9]: 17.031 µM and 16.563 µM and 17.656 µM
μM NO release Avg ([2]; dose 100 μM, 48 hours): 13.125 µM
OD values (printed under head μM NO release) [2, 10]: 0.136
μM NO release [2, 10]: 13.125 µM
Avg % Inhibition ([2]; dose 200 μM, 48 hours): 69.211%
μM NO release Avg ([2]; dose 200 μM, 48 hours): 6.094 µM
% inhibition ([2]; dose 200 μM, 48 hours, single replicates): 68.42% and 71.58%
